Measured values published in publication PMC6199744, “Development of Chemical Proteomics for the Folateome and Analysis of the Kinetoplastid Folateome” (ACS Infectious Diseases, 2018).
Values joined by “and” are separate entries in the source; they are usually repeats but may differ in a detail not shown here. Equal values may be shown once. Read-outs that look alike come from different tables or passages of the source.

Tested on: L. major lysate proteins
Assay: Multitargeted bead mixture chemoproteomics, single concentration competition, proteome-wide
Format: binding
Settings: for fold change: vehicle control = 1

NCCOCCOCC(=O)Nc1nc2ncc(CNc3ccc(C(=O)NC(CCC(=O)O)C(=O)O)cc3)nc2c(=O)[nH]1 (stereo not drawn) [compound 6]
fold change vs vehicle control: 1.04 and 1.02 | protein inhibition, any captured protein (Figure 8) (bead mixture, L. major lysate): no protein inhibition >30% | fold change vs vehicle control (protein CLI00016468.1 KINETOPLASTID MEMBRANE PROTEIN-11): 0.79 | fold change vs vehicle control (protein LINJ.03.0240 RIBOSOMAL PROTEIN L38, PUTATIVE): 1.35 | fold change vs vehicle control (protein LINJ.11.0780 40S RIBOSOMAL PROTEIN S21, PUTATIVE): 1.03 | fold change (protein LINJ.11.0960 40S RIBOSOMAL PROTEIN S5): 1.03 | fold change vs vehicle control (protein LINJ.13.0990 PROTEASOME REGULATORY ATPASE SUBUNIT 2, PUTATIVE): 0.92 | fold change vs vehicle control (protein LINJ.15.0330 RIBONUCLEOPROTEIN P18, MITOCHONDRIAL PRECURSOR, PUTATIVE): 0.98 | fold change (protein LINJ.19.0090 FIBRILLARIN, PUTATIVE): 0.87 | fold change relative to vehicle control (protein LINJ.23.0860, 3-KETOACYL-COA THIOLASE, PUTATIVE): 1.25 | fold change relative to vehicle control (protein LINJ.24.2300, 60S RIBOSOMAL PROTEIN L12, PUTATIVE): 1 | fold change vs vehicle control (protein LINJ.25.2230 SUCCINYL-COA […] SUBUNIT, PUTATIVE): 1.06 | fold change vs vehicle control (protein LINJ.26.1630 40S RIBOSOMAL PROTEIN S33, PUTATIVE): 1.13 | fold change vs vehicle control (protein LINJ.28.1100 RIBOSOMAL PROTEIN S20, PUTATIVE): 0.92 | fold change relative to vehicle control (protein LINJ.28.1940, REPLICATION FACTOR A, 51KDA SUBUNIT, PUTATIVE): 0.96 | fold change (protein LINJ.28.2280 DYNEIN LIGHT CHAIN LC6, FLAGELLAR OUTER ARM, PUTATIVE): 0.7 | fold change (protein LINJ.28.2870 PROTEIN PHOSPHATASE 4 CATALYTIC SUBUNIT, PUTATIVE): 0.82 | fold change relative to vehicle control (protein LINJ.31.1600, […] OXIDASE VIII (COX VIII), PUTATIVE): 0.8 | fold change relative to vehicle control (protein LINJ.33.1730, CYCLOPHILIN 4, PUTATIVE): 1.42 | fold change vs vehicle control (protein LINJ.34.0670 […]-ATP-ASE SUBUNIT 11, PUTATIVE,19S […]): 1.08 | fold change vs vehicle control (protein LINJ.36.0780 PROTEIN KINASE, PUTATIVE,MITOGEN-ACTIVATED PROTEIN KINASE, PUTATIVE): 1.16 | fold change relative to vehicle control (protein LINJ.36.3960, BASIC TRA[…] 3A, PUTATIVE): 1.37 | fold change vs vehicle control (protein LINJ.36.4070 EUKARYOTIC TRANSLATION INITIATION FACTOR 3 SUBUNIT, PUTATIVE): 0.98 | fold change relative to vehicle control (protein LINJ.36.4080, HY[…], CONSERVED): 1.12 | fold change (protein LINJ.36.4180 HS1VU COMPLEX P[…]-LIKE): 1.02 | fold change vs vehicle control (protein LINJ.[…] LONG-CHAIN-FATTY-ACID-COA LIGASE, PUTATIVE): 0.98 | fold change (protein LMJF.01.0570 TRIC[…], PUTATIVE): 0.96 | fold change relative to vehicle control (protein LMJF.03.0200, DELTA-1-PYRROLINE-5-CARBOXYLATE DEHYDROGENASE, PUTATIVE): 1.14 | fold change (protein LMJF.03.0230 LONG CHAIN FATTY ACYL COA SYNTHETASE, PUTATIVE): 1 | fold change (protein LMJF.03.0980 ELONGATION INITIATION FACTOR 2 ALPHA SUBUNIT, PUTATIVE): 0.99 | fold change vs vehicle control (protein LMJF.04.0630 HY[…], CONSERVED): 1.04 | fold change vs vehicle control (protein LMJF.04.1230 actin): 1.07 | fold change (protein LMJF.05.0100 PHOSPHOPROTEIN PHOSPHATASE, PUTATIVE): 0.99 | fold change (protein LMJF.05.0280 PROTEIN TYROSINE PHOSPHATASE, PUTATIVE): 0.92 | fold change (protein LMJF.05.0510 ATPASE ALPHA SUBUNIT): 1.08 | fold change (protein LMJF.05.1040 STOMATIN-LIKE PROTEIN): 0.97 | fold change (protein LMJF.06.0650 LANOSTEROL SYNTHASE, PUTATIVE): 0.97 | fold change vs vehicle control (protein LMJF.07.0700 TOPOISOMERASE-RELATED FUNCTION PROTEIN-LIKE PROTEIN): 0.83 | fold change (protein LMJF.07.1000 RNA BINDING PROTEIN-LIKE PROTEIN): 0.9 | fold change relative to vehicle control (protein LMJF.07.1140, PEPTIDE […] REDUCTASE-LIKE): 1.14 | fold change (protein LMJF.08.0510 RIBOSE-PHOSPHATE PYROPHOSPHOKINASE, PUTATIVE): 0.97 | fold change vs vehicle control (protein LMJF.08.0550 T[…]-LIKE PROTEIN): 1.05 | fold change relative to vehicle control (protein LMJF.08.1030, cathepsin L-like protease): 0.94 | fold change vs vehicle control (protein LMJF.08.1100 HY[…], CONSERVED): 1.01 | fold change vs vehicle control (protein LMJF.09.1010 HYPOTHETICAL PROTEIN, CONSERVED): 0.88 | fold change relative to vehicle control (protein LMJF.09.1120, MIT[…] BINDING PROTEIN 2,MRP2, GBP25): 1.13 | fold change vs vehicle control (protein LMJF.09.1260 HYPOTHETICAL PROTEIN, CONSERVED): 0.98 | fold change (protein LMJF.10.0210 NUCLEOLAR PROTEIN, PUTATIVE): 1.03 | fold change vs vehicle control (protein LMJF.10.0310 PROTEIN TRANSPORT PROTEIN SEC23, PUTATIVE): 0.91 | fold change (protein LMJF.11.0590 3-[…]-COA C[…] SUBUNIT, PUTATIVE): 0.92 | fold change relative to vehicle control (protein LMJF.11.0630, AMINOPEPTIDASE, PUTATIVE,METALLO-PEPTIDASE, CLAN MF, FAMILY M17): 1.13 | fold change vs vehicle control (protein LMJF.11.1050 PRETRA[…], ALPHA SUBUNIT, PUTATIVE,SEC61-LIKE (PRETRA[…]) PROTEIN, PUTATIVE): 1.04 | fold change (protein LMJF.11.1160 PROTEIN TRANSPORT PROTEIN SEC31, PUTATIVE): 0.87 | fold change (protein LMJF.12.0030 PROTEASOME BETA-1 SUBUNIT, PUTATIVE): 0.9 | fold change vs vehicle control (protein LMJF.12.0210 […] […]1L8 3, PUTATIVE): 0.98 | fold change relative to vehicle control (protein LMJF.12.0530, GLUCOSE-6-PHOSPHATE ISOMERASE): 1.41 | fold change (protein LMJF.12.0630 ALANINE AMINOTRANSFERASE): 0.95 | fold change vs vehicle control (protein LMJF.13.1230 40S RIBOSOMAL PROTEIN S4, PUTATIVE): 1.22 | fold change vs vehicle control (protein LMJF.14.0310 PROTEASOME ALPHA 3 SUBUNIT, PUTATIVE): 0.96 | fold change (protein LMJF.14.0660 FATTY ACID ELONGASE, PUTATIVE): 1.14 | fold change (protein LMJF.14.0670 FATTY ACID ELONGASE, PUTATIVE): 0.98 | fold change vs vehicle control (protein LMJF.14.0680 FATTY ACID ELONGASE, PUTATIVE): 1.13 | fold change (protein LMJF.14.0990 ADP/ATP MIT[…]-LIKE PROTEIN): 1.32 | fold change vs vehicle control (protein LMJF.14.1160 ENOLASE): 1.1 | fold change (protein LMJF.14.1440 HYPOTHETICAL PROTEIN, CONSERVED (cytoskeleton associated protein, putative)): 0.82 | fold change (protein LMJF.15.0040 HYPOTHETICAL PROTEIN, CONSERVED (Possible lysine decarboxylase, putative)): 0.84
